The record followed here is patent US20210069333A1, “CANNABINOIDS IN COMBINATION WITH NON-CANNABINOID CHEMOTHERAPEUTIC AGENTS” (GW Pharma Limited, priority 2008, published 2021).

One assay relates to U87MG cells. The assay can be described thus: Induced cell death in U87MG cells with ATG1 silencing or pan-caspase inhibitor. The following applies: cell death induced by the THC:CBD combination, FIGS. 3b and 3c.
The subject of assay [1] is human U87 MG astrocytoma cells. Nature of the assay: Cell viability of human U87 MG astrocytoma cells in culture. Type of assay: cell-based. The following applies: for reduction of cell viability in combination with THC vs agent alone: U87 MG, combined with THC, FIGS. 4 and 5; for IC50: Homo sapiens, U-87 MG, read-out: IC50 μM (pure cannabinoids). As for the experimental part: Tetrahydrocannabinol (THC) and cannabidiol (CBD) in the form of cannabis plant extracts were dissolved in ethanol to a concentration of 100 mM this was stored at −20° C. until required.
Before use the cannabis plant extracts were further diluted to the desired concentration, ensuring that the concentration of ethanol was below 0.001%.
U87 human glioma cells were used throughout this experiment. The cells were maintained at 37° C. in a humidified atmosphere with 5% CO2 and 95% air.
Cells were cultured in a 75 cm^2 culture flask in Dulbecco's Modified Eagle Medium (DMEM), which had been supplemented with 4 mM L-glutamine, 100 units/ml penicillin, […], 1% sodium pyruvate, 1% non-essential amino acids and 10% heat-inactivated fetal bovine serum.
The viability of the human U87 MG astrocytoma cells were examined at various cannabinoid concentrations. The THC and CBD extracts were compared against pure THC and CBD.
The methods used were as described in Example 1 above.
The action of THC, CBD, and a 1:1 ratio mix of THC and CBD were studied at different concentrations on two cell lines: U87MG and T98G.
Cell viability assays were performed as described in Example 1 above.

The subject of assay [2] is Human U87 MG astrocytoma cells xenografted to nude mice. The assay can be described thus: U87 MG astrocytoma xenograft in nude mice, tumour volume. Particulars: 15 mg/kg per day, injected peritumourally. Type of assay: in vivo. As for the experimental part:
Human U87 MG astrocytoma cells were xenografted to nude mice and the test compounds were injected peritumourally at a concentration of 15 mg/kg per day.

With Z-VAD, the “effect on induced cell death” value in the assay with U87MG cells is “prevent induced cell death”.

On to `N.N.[Cl][Pt][Cl]` [cisplatin], for which, in assay [1], the “reduction of cell viability in combination with THC vs agent alone” value was “more efficient at reducing cell viability”.

Regarding `CCCCCc1cc(O)c2c(c1)OC(C)(C)[C@@H]1CCC(C)=C[C@@H]21` [THC, tetrahydrocannabinol], in assay [1], the IC50 (as a rule, the concentration at which inhibition is half-maximal) was 0.37 µM. The “Tumour volume relative to zero time following 15 days of treatment” value in assay [2] amounted to 5.1 ± 0.4.

Turning to `C=C(C)[C@@H]1CCC(C)=C[C@H]1c1c(O)cc(CCCCC)cc1O` [CBD, cannabidiol], the IC50 in assay [1] came to 0.47 µM.

`CC/C(=C(\c1ccccc1)c1ccc(OCCN(C)C)cc1)c1ccccc1` [tamoxifen]: the “reduction of cell viability in combination with THC vs agent alone” value in assay [1] is on record as “more efficient at reducing cell viability”.
